Assay results: patent US20220408724A1, “METHOD FOR CONTROLLING METABOLISM OF BRANCHED FATTY ACID” (KAO CORPORATION, priority 2019, published 2022)
Values joined by “and” are separate entries in the source; they are usually repeats but may differ in a detail not shown here. Identical values can stand only once.

Columns and labels:
Assay type in all cases: cell-based
Staphylococcus aureus = experiment: Suppression of metabolism of 14-methylhexadecanoic acid on cotton fabric; details: agent 250 μg/fabric g
Protocol: (§1) A methanol solution in which 14-methylhexadecanoic acid (SIGMA-ALDRICH) was dissolved was added dropwise to 3 cm×3 cm pieces of sterilized plain-weave cotton fabric to make it adhered to the fabric. The adhesion amount of 14-methylhexadecanoic acid was set to 10 μg per piece of the plain-weave cotton fabric (100 μg/fabric g).
(§2) Further, a methanol solution in which each metabolism controlling agent was dissolved was prepared and added dropwise to the fabric to which 14-methylhexadecanoic acid adhered, and it was thereafter dried for an hour. This fabric was placed in a sterilized screw tube bottle No. 3 (Maruemu Corporation) and 100 μl of the bacterial suspension was inoculated thereto, and culture was carried out under 37° C.; conditions for 21 hours.
(§3) 3 ml of methanol was added to the screw tube bottle after culture, and extraction was carried out under ultrasonic irradiation for 30 minutes (20° C.). The extraction liquid was mixed with a (trimethylsilyl)diazomethane hexane solution (FUJIFILM Wako Pure Chemical Corporation) at 9:1 (volume ratio) and left overnight under room temperature and dark place conditions. After that, 14-methylhexadecanoic acid remaining on the fabric was quantified by GC. The quantification conditions for GC are as follows. • GC: Agilent 7890A • GC column: Agilent DB-1 30 m×250 μm×0.25 μm • Temperature rise condition: 50° C. (held for 3 minutes)-(10° C./min)-300° C. (held for 5 minutes) • Sample injection volume: 1 μl • Split ratio: 1:12 • Detector: FID
(§4) The residual amount of 14-methylhexadecanoic acid after culture on the fabric to which the metabolism controlling agent was added was quantified, and the ratio of the residual amount to that of 14-methylhexadecanoic acid in the case of adding no metabolism controlling agent (control) was calculated as a metabolism suppression rate (%). The higher a numerical value thereof is, the more the metabolism is suppressed. Note that the metabolism suppression rate was determined by the following formula:
(§5) Metabolism suppression rate(%)=[1−(100−A)/(100−B)]×100 • A: residual amount of 14-methylhexadecanoic acid of example or comparative example (μg/fabric g) • B: residual amount of 14-methylhexadecanoic acid of control (μg/fabric g)
The metabolism of 14-methylhexadecanoic acid by bacteria of the genus Staphylococcus (Staphylococcus aureus) was tested in the same manner as in example 1.
In this example, Staphylococcus aureus (strain isolated from clothing) was used as a microorganism.
Further, in this example, a bacterial suspension of 10^7 (CFU/ml) prepared by using an NB liquid medium diluted to 1/10 with ion exchange water was used as a bacterial suspension.

[1] = system: Escherichia coli (NBRC3972); experiment: as above
Protocol: as §1, §2, §3, §4, §5
The metabolism of 14-methylhexadecanoic acid by bacteria of the genus Escherichia (Escherichia coli) was tested in the same manner as in example 1.
In this example, Escherichia coli (NBRC3972) was used as a microorganism.
Further, in this example, a bacterial suspension of 10^6 (CFU/ml) prepared by using an NB liquid medium diluted to 1/10 with ion exchange water was used as a bacterial suspension.
(§6) Note that, in this example, C12OH (1-dodecanol) was used as the metabolism controlling agent.

Rhodotorula mucilaginosa = experiment: Measurement of viable count on fabric (PDA agar)
Protocol: (§7) After culture on fabric prepared in the same manner as in the above (1), 9 mL of an LP diluent (manufactured by NIHON PHARMACEUTICAL CO., LTD.) was added, and the extraction of the bacteria was carried out under ultrasound for 10 minutes. The extraction liquid was poured and mixed to an SCD-LP agar medium (NIHON PHARMACEUTICAL CO., LTD.), and culture was thereafter carried out at 37° C.; for a day. The number of colonies obtained on each piece of the fabric was counted, and a common logarithm value thereof was measured as the viable bacterial count. […] In addition, the […], the more the viable bacterial count of the microorganism is maintained.
The metabolism of 14-methylhexadecanoic acid by yeast of the genus Rhodotorula was tested in the same manner as in example 1.
In this example, Rhodotorula mucilaginosa (strain isolated from clothing) was used as a microorganism.
Further, in this example, the bacteria were precultured under conditions of a PDA agar medium (Difco), 30° C.; and 48 hours.
Further, in this example, a bacterial suspension of 10^7 (CFU/ml) prepared by using a PDB liquid medium (Difco) diluted to 1/10 with ion exchange water was used as a bacterial suspension.
Further, in this example, after the extraction of the bacteria in (3) of example 1, they were poured and mixed to a PDA agar medium (Difco) and thereafter cultured at 30° C.; for 2 days, and the viable bacterial count was measured.
as §6

Micrococcus aloeverae = experiment: Measurement of viable bacterial count on fabric
Protocol: as §7
The metabolism of 14-methylhexadecanoic acid by bacteria of the genus Micrococcus was tested in the same manner as in example 1.
In this example, Micrococcus aloeverae (strain isolated from clothing) was used as a microorganism.
Further, in this example, a bacterial suspension of 10^7 (CFU/ml) prepared by using an SCD liquid medium (NIHON PHARMACEUTICAL CO., LTD.) diluted to 1/10 with ion exchange water was used as a bacterial suspension.
as §6

CCCCCCCCCCCCO [Example C12OH, 1-dodecanol]
Metabolism suppression rate (%) (Staphylococcus aureus): 75%
Metabolism suppression rate (%) ([1]; agent 500 μg/fabric g): 39% and 21%
Metabolism suppression rate (%) ([1]; agent 1000 μg/fabric g): 90% and 61%
Metabolism suppression rate (%) ([1]; agent 2000 μg/fabric g): 66%
Metabolism suppression rate (%) ([1]; agent 3000 μg/fabric g): 73%
Bacterial count (Log (cfu/fabric cm^2)) (Rhodotorula mucilaginosa; agent 250 μg/fabric g): 4.9 Log (cfu/fabric cm^2)
Bacterial count (Log (cfu/fabric cm^2)) (Rhodotorula mucilaginosa; agent 500 μg/fabric g): 4.7 Log (cfu/fabric cm^2)
Bacterial count (Log (cfu/fabric cm^2)) (Rhodotorula mucilaginosa; agent 1000 μg/fabric g): 4.8 Log (cfu/fabric cm^2)
Bacterial count (Log (cfu/fabric cm^2)) (Micrococcus aloeverae; agent 100 μg/fabric g): 6.5 Log (cfu/fabric cm^2)
Bacterial count (Log (cfu/fabric cm^2)) (Micrococcus aloeverae; agent 500 μg/fabric g): 5.6 Log (cfu/fabric cm^2)
Bacterial count (Log (cfu/fabric cm^2)) (Micrococcus aloeverae; agent 1000 μg/fabric g): 5.6 Log (cfu/fabric cm^2)
